The results in this text go back to ChEMBL document CHEMBL1145821, “Dihydrofolate reductase mutant with exceptional resistance to methotrexate but not to trimetrexate” (J Med Chem, 2003).

As a reminder, the Ki is the equilibrium dissociation constant of an inhibitor or competing ligand from its target. Read a high Ki as weaker binding.

The target in assay [1] is T1, Dihydrofolate reductase (Mus musculus, UniProt P00375).
T1 sequence (P00375 whole entry): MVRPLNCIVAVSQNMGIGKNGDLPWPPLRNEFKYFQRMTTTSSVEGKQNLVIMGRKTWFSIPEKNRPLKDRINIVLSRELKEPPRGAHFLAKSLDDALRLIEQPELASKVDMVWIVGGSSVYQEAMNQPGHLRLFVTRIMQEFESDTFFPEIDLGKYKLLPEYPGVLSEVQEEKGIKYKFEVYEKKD
The experiment in a line: Inhibitory constant for F31A/F34A murine dihydrofolate reductase (DHFR).

Assay [2] addresses T2, Dihydrofolate reductase (Mus musculus, UniProt P00375). The assay can be described thus: Combined effect of active site mutation F31A and F34A on inhibitory effect for murine Wild-type dihydrofolate reductase (DHFR).
Assay [3] deals with T3, Dihydrofolate reductase (Mus musculus) (UniProt P00375).
T3 sequence (whole entry): T1 sequence (P00375 whole entry)

Assay [4] concerns the target T2, Dihydrofolate reductase. The assay can be described thus: Combined effect of active site mutation F31A and F34A on inhibitory effect for F31A/F34A murine dihydrofolate reductase (DHFR).
Assay [5] deals with T1, Dihydrofolate reductase. The assay can be described thus: Inhibitory constant for murine Wild-type dihydrofolate reductase (DHFR).

As to `CN(Cc1cnc2nc(N)nc(N)c2n1)c1ccc(C(=O)NC(CCC(=O)NCCCCCCCCCCCCNC(=O)CCC(NC(=O)c2ccc(N(C)Cc3cnc4nc(N)nc(N)c4n3)cc2)C(=O)O)C(=O)O)cc1` (centres undefined), the Ki on Dihydrofolate reductase [1] was 212 nM. Further, the figures for the Ki·kcat/Km on Dihydrofolate reductase [2] and on Dihydrofolate reductase [4] were 0.00126 s⁻¹ and 0.112 s⁻¹, respectively. For the same compound, in assay [3], the Kimut/Kiwt came out at 4410.
Turning to `COc1cc(NCc2ccc3nc(N)nc(N)c3c2C)cc(OC)c1OC` [TRIMETREXATE], the Ki on Dihydrofolate reductase [1] stood at 0.81 nM; on Dihydrofolate reductase [5], 0.06 nM. In addition, the Ki·kcat/Km at Dihydrofolate reductase [2] came out at 0.00158 s⁻¹; at Dihydrofolate reductase [4], 0.00043 s⁻¹. Also, the Kimut/Kiwt in assay [3] is 13.5.
